The values that follow come from ChEMBL document CHEMBL1201862, “PubChem BioAssay data set” (2004).

The structures appear in SMILES notation. The source made the active and inactive calls.

Experiment [1] addresses T1, Protein RecA (Mycobacterium tuberculosis, UniProt P9WHJ3).
T1 sequence (P9WHJ3 whole entry): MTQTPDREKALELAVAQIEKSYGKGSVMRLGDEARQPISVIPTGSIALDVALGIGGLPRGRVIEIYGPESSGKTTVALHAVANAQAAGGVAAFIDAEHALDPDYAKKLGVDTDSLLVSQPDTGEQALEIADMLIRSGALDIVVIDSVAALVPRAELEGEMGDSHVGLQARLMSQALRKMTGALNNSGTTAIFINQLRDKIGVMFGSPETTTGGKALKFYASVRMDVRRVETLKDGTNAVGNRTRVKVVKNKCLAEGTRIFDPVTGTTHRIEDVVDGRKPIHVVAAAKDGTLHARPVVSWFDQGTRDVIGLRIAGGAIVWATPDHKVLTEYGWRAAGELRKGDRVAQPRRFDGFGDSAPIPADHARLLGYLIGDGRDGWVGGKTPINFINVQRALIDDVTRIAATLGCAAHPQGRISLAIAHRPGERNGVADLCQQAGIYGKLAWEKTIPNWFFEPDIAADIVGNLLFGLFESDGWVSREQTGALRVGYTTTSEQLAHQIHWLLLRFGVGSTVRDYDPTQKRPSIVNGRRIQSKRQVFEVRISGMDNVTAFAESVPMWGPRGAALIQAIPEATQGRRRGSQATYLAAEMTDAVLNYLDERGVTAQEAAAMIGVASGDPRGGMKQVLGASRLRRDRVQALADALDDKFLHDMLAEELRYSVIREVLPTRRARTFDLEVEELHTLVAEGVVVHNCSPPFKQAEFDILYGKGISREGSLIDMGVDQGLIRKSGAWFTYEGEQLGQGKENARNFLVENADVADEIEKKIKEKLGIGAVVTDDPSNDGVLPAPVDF
Kind of experiment: Fluorescence Cell-Free Homogeneous Dose Retest to Identify Inhibitors of RecA-Intein Splicing Activity. [Related pubchem assays (depositor defined):AID2097, AID2223, AID489010, AID492950]. It counts as functional.

In experiment [2] the target is T2, Replicative DNA helicase DnaB (Mycobacterium tuberculosis, UniProt P9WMR3).
T2 sequence (P9WMR3 whole entry): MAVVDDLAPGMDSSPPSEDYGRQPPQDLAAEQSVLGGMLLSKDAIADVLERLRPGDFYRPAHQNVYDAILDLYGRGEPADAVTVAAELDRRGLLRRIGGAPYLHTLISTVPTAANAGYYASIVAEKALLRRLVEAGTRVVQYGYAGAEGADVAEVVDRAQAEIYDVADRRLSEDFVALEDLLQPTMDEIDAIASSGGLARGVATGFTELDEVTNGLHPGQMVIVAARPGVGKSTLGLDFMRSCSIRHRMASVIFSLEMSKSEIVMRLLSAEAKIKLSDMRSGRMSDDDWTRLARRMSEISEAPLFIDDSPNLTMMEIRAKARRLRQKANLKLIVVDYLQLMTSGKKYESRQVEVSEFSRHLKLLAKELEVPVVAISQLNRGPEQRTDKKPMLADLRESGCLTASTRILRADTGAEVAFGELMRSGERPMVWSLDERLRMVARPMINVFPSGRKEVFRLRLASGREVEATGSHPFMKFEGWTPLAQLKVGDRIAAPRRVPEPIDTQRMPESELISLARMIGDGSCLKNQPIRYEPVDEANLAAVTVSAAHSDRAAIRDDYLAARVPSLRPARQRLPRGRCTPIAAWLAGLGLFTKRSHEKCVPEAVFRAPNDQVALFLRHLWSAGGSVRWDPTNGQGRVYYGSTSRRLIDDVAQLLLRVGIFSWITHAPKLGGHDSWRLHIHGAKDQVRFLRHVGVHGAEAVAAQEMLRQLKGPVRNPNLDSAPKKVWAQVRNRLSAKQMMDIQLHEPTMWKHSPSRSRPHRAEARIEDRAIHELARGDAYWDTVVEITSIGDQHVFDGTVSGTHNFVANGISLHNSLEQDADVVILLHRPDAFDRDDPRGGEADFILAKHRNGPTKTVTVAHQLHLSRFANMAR
Kind of experiment: DnaB intein splicing inhibitors, dose response, biochemical, cell-free fluorescence (AID 449749). It counts as functional.

In experiment [3] the target is Tyrosyl-DNA phosphodiesterase 2 (Homo sapiens, UniProt O95551). The experiment in a line: human TDP2 enzyme inhibitors, dose response, biochemical, epi absorbance, IC50 (AID 743297).
Sequence of Tyrosyl-DNA phosphodiesterase 2 (O95551 whole entry): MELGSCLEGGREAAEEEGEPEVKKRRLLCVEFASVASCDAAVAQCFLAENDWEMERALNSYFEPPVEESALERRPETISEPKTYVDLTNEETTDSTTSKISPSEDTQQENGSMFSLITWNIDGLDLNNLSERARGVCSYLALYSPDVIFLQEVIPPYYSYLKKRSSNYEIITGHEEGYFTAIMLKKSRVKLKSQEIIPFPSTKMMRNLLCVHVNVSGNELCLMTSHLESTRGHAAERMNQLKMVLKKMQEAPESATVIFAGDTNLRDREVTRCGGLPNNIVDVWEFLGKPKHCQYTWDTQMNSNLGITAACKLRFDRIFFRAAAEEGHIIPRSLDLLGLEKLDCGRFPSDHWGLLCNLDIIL
The target of experiment [4] is Histone-lysine N-methyltransferase NSD2 (Homo sapiens, UniProt O96028). It counts as biochemical.
Sequence of Histone-lysine N-methyltransferase NSD2 (O96028 whole entry): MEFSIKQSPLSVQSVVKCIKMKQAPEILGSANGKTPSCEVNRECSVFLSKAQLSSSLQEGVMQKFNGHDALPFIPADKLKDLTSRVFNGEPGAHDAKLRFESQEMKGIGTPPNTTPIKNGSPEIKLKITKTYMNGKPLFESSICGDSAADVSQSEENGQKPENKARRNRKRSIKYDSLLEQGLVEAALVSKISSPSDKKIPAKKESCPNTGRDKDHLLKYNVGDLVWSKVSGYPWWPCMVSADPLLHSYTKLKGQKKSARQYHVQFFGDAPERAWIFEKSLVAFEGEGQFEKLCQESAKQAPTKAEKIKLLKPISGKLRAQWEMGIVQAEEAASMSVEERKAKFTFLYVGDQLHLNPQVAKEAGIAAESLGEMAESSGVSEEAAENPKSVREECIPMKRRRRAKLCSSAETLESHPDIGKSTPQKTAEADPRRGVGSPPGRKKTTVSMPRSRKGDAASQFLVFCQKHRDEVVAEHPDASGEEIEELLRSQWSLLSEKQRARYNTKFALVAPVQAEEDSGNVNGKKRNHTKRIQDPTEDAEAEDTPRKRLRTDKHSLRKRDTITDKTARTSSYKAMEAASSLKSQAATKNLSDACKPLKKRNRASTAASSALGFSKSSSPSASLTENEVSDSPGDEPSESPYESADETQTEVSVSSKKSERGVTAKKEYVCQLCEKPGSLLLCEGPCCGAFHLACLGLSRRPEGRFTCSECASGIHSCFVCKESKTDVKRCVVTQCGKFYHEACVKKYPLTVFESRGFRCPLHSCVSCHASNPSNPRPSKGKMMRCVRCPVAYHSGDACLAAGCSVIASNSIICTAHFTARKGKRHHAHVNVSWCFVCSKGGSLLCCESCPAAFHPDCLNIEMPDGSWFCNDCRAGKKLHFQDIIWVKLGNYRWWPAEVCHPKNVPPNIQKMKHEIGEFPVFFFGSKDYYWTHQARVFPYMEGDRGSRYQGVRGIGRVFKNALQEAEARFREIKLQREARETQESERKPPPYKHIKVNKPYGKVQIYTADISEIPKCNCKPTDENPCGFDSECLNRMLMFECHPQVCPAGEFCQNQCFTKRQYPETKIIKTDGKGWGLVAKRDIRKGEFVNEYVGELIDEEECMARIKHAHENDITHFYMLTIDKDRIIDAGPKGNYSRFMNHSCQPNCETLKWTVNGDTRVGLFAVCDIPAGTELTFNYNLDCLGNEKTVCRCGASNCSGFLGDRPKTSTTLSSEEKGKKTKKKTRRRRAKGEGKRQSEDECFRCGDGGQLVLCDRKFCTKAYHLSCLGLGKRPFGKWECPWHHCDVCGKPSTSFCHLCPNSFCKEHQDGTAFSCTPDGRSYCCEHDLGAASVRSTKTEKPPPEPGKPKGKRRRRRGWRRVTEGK
The target in experiment [5] is T3, Zinc finger protein mex-5 (Caenorhabditis elegans, UniProt Q9XUB2).
T3 sequence (Q9XUB2 whole entry): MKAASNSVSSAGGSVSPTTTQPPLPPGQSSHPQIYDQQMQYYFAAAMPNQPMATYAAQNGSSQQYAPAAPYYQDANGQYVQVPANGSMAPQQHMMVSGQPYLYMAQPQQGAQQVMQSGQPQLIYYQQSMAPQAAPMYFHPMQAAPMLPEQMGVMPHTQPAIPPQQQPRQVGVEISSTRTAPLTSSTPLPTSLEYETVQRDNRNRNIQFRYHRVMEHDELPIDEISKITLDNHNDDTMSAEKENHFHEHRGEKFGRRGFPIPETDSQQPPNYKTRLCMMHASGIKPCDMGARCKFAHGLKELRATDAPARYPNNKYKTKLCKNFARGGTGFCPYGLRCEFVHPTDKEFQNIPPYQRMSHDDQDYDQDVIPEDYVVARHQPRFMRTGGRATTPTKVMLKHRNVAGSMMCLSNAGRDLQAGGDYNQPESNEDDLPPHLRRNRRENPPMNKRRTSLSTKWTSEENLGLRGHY
The experiment in a line: MEX-5/TCR-2 RNA interaction inhibitors, dose response, biochemical, C. elegans, fluorescence polarization (AID 1960).

Experiment [6] concerns the target T4, RNA-binding protein pos-1 (Caenorhabditis elegans, UniProt G5EF15).
T4 sequence (G5EF15 whole entry): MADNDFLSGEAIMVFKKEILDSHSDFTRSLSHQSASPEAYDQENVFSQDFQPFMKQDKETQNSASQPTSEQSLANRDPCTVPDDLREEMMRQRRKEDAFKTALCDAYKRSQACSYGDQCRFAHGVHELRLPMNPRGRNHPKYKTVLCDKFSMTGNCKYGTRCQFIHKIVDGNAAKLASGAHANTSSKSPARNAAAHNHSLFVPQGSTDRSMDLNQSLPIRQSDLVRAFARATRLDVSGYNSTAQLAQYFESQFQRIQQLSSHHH
The experiment in a line: inhibitors of POS-1/mex-3 RNA binding, dose response, biochemical, fluorescence polarization (AID 1964).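 Note: purified POS-1 fused to maltose binding protein made in E. coli; potency of compounds blocking POS-1 binding to fluorescent RNA.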

A short description of experiment [7]: MC4R antagonists, dose response, counter-screen for LGR2 antagonist project, cell-based, plate reader, cherry pick (AID 743444).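 Note: transfected HEK 293 cells stimulated with alpha-MSH peptide; potency of inhibitors of the alpha-MSH evoked signal.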 It counts as functional.
Experiment [8] can be described thus: A549 cell cytotoxicity, dose response, cytotoxicity control, plate reader, cherry-pick, antagonist series (AID 743412). It counts as functional, cell-based.
A short description of experiment [9]: HepG2 cell cytotoxicity, dose response, cytotoxicity control, plate reader, cherry-pick, antagonist series (AID 743416). The class given is functional, cell-based.
Experiment [10] is described as follows: LGR2 antagonists, dose response, cell-based, HEK293, CRE-luciferase reporter, cherry pick, set 2 (AID 743343).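 Note: transfected cells were stimulated with diluted bursicon conditioned medium after compound addition.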 The class given is functional.
A short description of experiment [11]: HEK293 cell cytotoxicity, dose response, cytotoxicity control, plate reader, cherry-picked samples (AID 743446). The class given is functional, cell-based.

As for `COc1ccc(/C=C2/C(=O)N(c3ccccc3)N=C2C)cc1Br`, the EC50 in experiment [1] is 2.3 µM (active). In [2], the concentration at half-maximal activity (AC50) was 2.77 µM (active). Moreover, in [3], the IC50 is 102 µM (inactive).

For the molecule `CC1=NN(c2ccc(C(=O)O)c(N)c2)C(=O)C1`, the 50% effective concentration (EC50) in [1] is 1.98 µM (active); in experiment [5], 38.3 µM (active); in experiment [6], 85.5 µM (active). Besides, the AC50 in experiment [2] is 3.01 µM (active); in experiment [4], > 20 µM (inactive).

For the molecule `COc1ccc(S(=O)(=O)Nc2ccc3c(c2)CC(=O)N([C@@H](C)CO)C[C@H](C)[C@@H](CN(C)Cc2ccc(Cl)c(Cl)c2)O3)cc1`, the concentration at half-maximal activity (AC50) is 15.9 µM (active) in experiment [7]; 12.4 µM (active) in experiment [8]; 14.3 µM (active) in experiment [9]; 20.5 µM (active) in experiment [10]; 15.7 µM (active) in experiment [11].
